In assay [1] the test system is hiPSC derived atrial cardiomyocytes. The assay is described as follows: Ca2+ transient imaging (Fluo4 optical mapping) with adrenergic agonists and antagonists. In kind it is cell-based, human. The procedure:
(§1) Optical mapping experiments were carried out after the cells started to contract. The responsiveness of the derived CMs in the experimental group to β and α adrenergic receptor agonists and antagonists was measured. Intracellular calcium transients were analysed using a 128×128 EMCCD camera (Photometrics, Tucson, USA). The derived CMs were pre-loaded with 1 μM Fluo4 (Molecular Probes by Life Technologies) dissolved in DMSO for 15 min at 37° C. in CMM. Calcium transients of the derived CMs were first recorded without the addition of the drugs as control. Recordings were then taken at 0 min, 5 min, 10 min and 15 min after 100 nM Isoprenaline (ISO) treatment. Using the same method, the responsiveness of the derived CMs in the experimental group to 10 μM Phenylephrine (PE) treatment was tested. […] Recordings were taken in the same way as described above. Similarly, the cells were pre-treated with 1 μM Prazosin dissolved in Fluo4 loading solution before a treatment of 10 μM PE. Metamorph was used to take the recordings, and 4000 or 8000 frames were taken for each recording, with a frame rate of 100 Hz (for 4000 frames) or 333.33 Hz (for 8000 frames). Regions of interest were selected using ImageJ. Raw traces were analysed and baseline corrections were conducted using Clampfit. Calcium transient amplitude change was calculated based on averaged trace. Part of the analysis was performed using custom MATLAB algorithms. To calculate beat-to-beat CaT50, the mean signal was segmented into individual beats. Representative regions were defined as two 16 by 16 pixel regions.
as §1, with “β and a adrenergic receptor” for “β and α adrenergic receptor”, “traces were analyzed and baseline” for “traces were analysed and baseline”, “was performed by the collaborator group from University of Birmingham using custom” for “was performed using custom”
We also tested whether hiPSC derived atrial cardiomyocytes responded to adrenoceptor stimulation by a or p adrenoceptor agonists. The presence of a functional al-adrenoceptor signaling pathway was first tested by exposure of hiPSC derived atrial cardiomyocytes to phenylephrine, which in adult atrial CMs increases the amplitude of Ca^2+ transients. Phenylephrine is an al-adrenoceptor agonist coupled to Gq and the mechanism of increase in Ca^2+ transient amplitude is associated with an increase cellular IP3 levels. Atrial cardiomyocytes from Days 25-30 post initiation of differentiating human iPSC derived atrial cardiomyocytes were used to assess the effect of phenylephrine on Ca^2+ transient amplitude. […]

Assay [2] deals with monolayer HiPSC-AM sheets. The assay is described as follows: Optical mapping of monolayer HiPSC-AM sheets, adrenergic stress induced CaT alternans. Conditions: 100 nM ISO; regular pacing at 0.5-1 Hz. The class given is cell-based, human. As for the experimental part:
Optical mapping experiments were carried out after the cells started to contract. The responsiveness of the derived CMs in the experimental group to β and a adrenergic receptor agonists and antagonists was measured. Intracellular calcium transients were analysed using a 128×128 EMCCD camera (Photometrics, Tucson, USA). The derived CMs were pre-loaded with 1 μM Fluo4 (Molecular Probes by Life Technologies) dissolved in DMSO for 15 min at 37° C. in CMM. Calcium transients of the derived CMs were first recorded without the addition of the drugs as control. Recordings were then taken at 0 min, 5 min, 10 min and 15 min after 100 nM Isoprenaline (ISO) treatment. Using the same method, the responsiveness of the derived CMs in the experimental group to 10 μM Phenylephrine (PE) treatment was tested. In adrenergic receptor antagonist tests, the cells were pre-treated with 600 nM CGP20712A (CGP) (Sigma) dissolved in Fluo4 loading solution prior to 100 nM ISO treatment. Recordings were taken in the same way as described above. Similarly, the cells were pre-treated with 1 μM Prazosin dissolved in Fluo4 loading solution before a treatment of 10 μM PE. […] Raw traces were analyzed and baseline corrections were conducted using Clampfit. Calcium transient amplitude change was calculated based on averaged trace. […]

For the compound `COc1cc2nc(N3CCN(C(=O)c4ccco4)CC3)nc(N)c2cc1OC` [prazosin], the “effect on the amplitude of Ca2+ transients, antagonist by itself” value in assay [1] (1 μM prazosin alone) is on record as “no effect”. Moreover, the “effects of adrenergic stimulation by 10 uM PE after antagonist pre-treatment” value in assay [1] (1 uM prazosin pre-treated, recorded 10 min after 10 uM PE) is reported as “abolished”.
Turning to `CC(C)NCC(O)c1ccc(O)c(O)c1` (centres unmarked) [isoproterenol], the CaT alternans result in assay [2] was “occurred”. In assay [1] (isoproterenol 100 nM, n=5 batch of cells), the “increase in the amplitude of Ca2+ transients” value is reported as 26±5%. Also, the “effect on the amplitude of Ca2+ transients when CGP20712A was present” value in assay [1] (isoproterenol with CGP20712A (300 nM) present, n=5 batch of cells) is listed as “without effect”.
For the compound `Cn1cc(C(F)(F)F)nc1-c1ccc(OCC(O)CNCCOc2ccc(O)c(C(N)=O)c2)cc1` (centres unmarked) [CGP20712A], the “effects of adrenergic stimulation after β-adrenergic antagonist pre-treatment” value in assay [1] (600 nM GCP pre-treated, recorded 10 min after 10 uM PE (so in the source)) was “abolished”. Also, in assay [1] (CGP20712A 300 nM alone), the “effect on the amplitude of Ca2+ transients, antagonist by itself” value is listed as “no effect”.
Take `CNC[C@H](O)c1cccc(O)c1` [phenylephrine]: in assay [1] (10 μM phenylephrine), the “effect on Ca2+ transient decay time” value was “no effect” and the “effect on Ca2+ transient rise time” value was “no effect”. In addition, the “change in the amplitude of Ca2+ transients in the presence of prazosin” value in assay [1] (10 μM phenylephrine in the presence of prazosin, n=5 batch of cells) is recorded as “did not cause any significant change”. In addition, the “increase in Ca2+ transient amplitude” value in assay [1] (10 μM phenylephrine, fluo-4 fluorescence, Days 25-30, n=5 batch of cells) worked out at 28±10%.

For the origin of these results see patent publication US12590294B2, “Process for producing cardiomyocytes” (Oxford University Innovation Limited, priority 2020, dated 2026).
